The record followed here is patent US20240207258A1, “HETEROCYCLIC PDK1 INHIBITORS FOR USE TO TREAT CANCER” (Viracta Therapeutics, Inc., priority 2015, published 2024).

Molecules are shown by their SMILES.

Test [1] has as its system CMK. In words: MTS cell proliferation assay, CMK. The class given is cell-based. To be noted: Homo sapiens, 72 hr. As for the experimental part: (§1) Cell proliferation was measured using the CellTiter 96 Aqueous Non-Radioactive Cell Proliferation Assay (Promega). The CellTiter 96® AQueous Assay is composed of solutions of a tetrazolium compound [3-(4,5-dimethylthiazol-2-yl)-5-(3-carboxymethoxyphenyl)-2-(4-sulfophenyl)-2H-tetrazolium, inner salt; MTS] and an electron coupling reagent (phenazine methosulfate) PMS. MTS is bioreduced by cells into a formazan product that is soluble in tissue culture medium. The absorbance of the formazan product at 490 nm can be measured directly from assay plates without additional processing. The quantity of formazan product as measured by the amount of 490 nm absorbance is directly proportional to the number of living cells in culture. Cells were seeded into 96-well or 384-well clear plates in a volume of 200 μL (96-well) or 50 μL (384-well) at optimized densities ranging from 1,000 to 40,000 cells per well for 96-well plates or 1,200 to 25,000 cells per well for 384-well plates depending on cell-line. After 4-6 hr recovery, serially diluted compounds in DMSO were added to the cells using (0.1% v/v final DMSO concentration). Cells were then grown at 37° C. in a humidified incubator with 5% CO2 for 72 hr. A 20:1 [3-(4,5-dimethylthiazol-2-yl)-5-(3-carboxymethoxyphenyl)-2-(4-sulfophenyl)-2H-tetrazolium](MTS):phenazine methosulfate (PMS) solution in DPBS was made immediately before use, added to each well, and cells were incubated for 1.5 hr at 37° C. The absorbance at 490 nm was then measured using a platereader. Absorbance values were normalized as percent of control (cells incubated in the presence of 0.1% v/v DMSO). Sigmoidal dose-response curves were plotted using log(inhibitor) vs. response—Variable slope (four parameters) model with a top value constrained to 100% (GraphPad Prism version 6.00 for Windows, GraphPad Software, La Jolla California USA). […] Curves for compounds that reached a plateau were matched exactly to the measurement points. […]
(In general: Tetrazolium assays rely on reduction of a dye to a coloured formazan, in cell work by metabolically active cells.)

For test [2], the system named is U-266. In words: MTS cell proliferation assay, U-266. Type of test: cell-based. The note with it: Homo sapiens; U-266, 72 hr. As for the experimental part: as §1
For test [3], the system named is RPMI-8226. In words: MTS cell proliferation assay, RPMI-8226. The class given is cell-based. To be noted: Homo sapiens; RPMI-8226, 72 hr. As for the experimental part: (§2) Cell proliferation was measured using the CellTiter 96 Aqueous Non-Radioactive Cell Proliferation Assay (Promega). The CellTiter 96® AQueous Assay is composed of solutions of a tetrazolium compound [3-(4,5-dimethylthiazol-2-yl)-5-(3-carboxymethoxyphenyl)-2-(4-sulfophenyl)-2H-tetrazolium, inner salt; MTS] and an electron coupling reagent (phenazine methosulfate) PMS. MTS is bioreduced by cells into a formazan product that is soluble in tissue culture medium. The absorbance of the formazan product at 490 nm can be measured directly from assay plates without additional processing. The quantity of formazan product as measured by the amount of 490 nm absorbance is directly proportional to the number of living cells in culture. Cells were seeded into 96-well or 384-well clear plates in a volume of 200 μL (96-well) or 50 μL (384-well) at optimized densities ranging from 1,000 to 40,000 cells per well for 96-well plates or 1,200 to 25,000 cells per well for 384-well plates depending on cell-line. After 4-6 hr recovery, serially diluted compounds in DMSO were added to the cells using (0.1% v/v final DMSO concentration). Cells were then grown at 37° C. in a humidified incubator with 5% CO2 for 72 hr. A 20:1 [3-(4,5-dimethylthiazol-2-yl)-5-(3-carboxymethoxyphenyl)-2-(4-sulfophenyl)-2H-tetrazolium](MTS):phenazine methosulfate (PMS) solution in DPBS was made immediately before use, added to each well, and cells were incubated for 1.5 hr at 37° C. The absorbance at 490 nm was then measured using a platereader. Absorbance values were normalized as percent of control (cells incubated in the presence of 0.1% v/v DMSO). Sigmoidal dose-response curves were plotted using log(inhibitor) vs. response—Variable slope (four parameters) model with a top value constrained to 100% (GraphPad Prism version 6.00 for Windows, GraphPad Software, La Jolla California USA). […] Curves for compounds that reached a plateau were matched exactly to the measurement points. […] To determine potential of compounds of the invention to affect viability of hematological cancers, cell lines representing various tumor types were selected and tested. Human cell lines tested were: MOLM-13 (acute myeloid leukemia (AML)), MV4-11 (AML), U-2932 (ABC-diffuse large B cell lymphoma), U-937 (histiocytic lymphoma), U-266 (multiple myeloma), RPMI-8226 (multiple myeloma), CMK (megakaryoblastic cell line), SU-DHL-4 (GCB-diffuse large B cell lymphoma), KG1 (AML), Mec-1 (chronic B-cell leukemia), MOLM-16 (AML), Jeko (B-cell lymphoma), WSU-DLCL2 (B-cell lymphoma), JJN3 (plasma cell leukemia), SU-DHL-6 (GCB-diffuse large B cell lymphoma), and Z-138 (mantle cell lymphoma). In addition, two murine cell lines were tested: A20 […].

Test [4] deals with U-937. In words: MTS cell proliferation assay, U-937. The class given is cell-based. The note with it: Homo sapiens; U-937, 72 hr. As for the experimental part:
as §1

Test [5] deals with WSU-DLCL2. In words: MTS cell proliferation assay, WSU-DLCL2. The note with it: Homo sapiens, WSUDLCL2; WSU-DLCL2, 72 hr. Type of test: cell-based. As for the experimental part: as §1
In test [6] the test system is JJN3. In words: MTS cell proliferation assay, JJN3. The class given is cell-based. To be noted: Homo sapiens, JJN-3; JJN3, 72 hr. As for the experimental part: as §1
Test [7] has as its system Mec-1. In words: MTS cell proliferation assay, Mec-1. The note with it: Homo sapiens, MEC1; Mec-1, 72 hr. Type of test: cell-based. As for the experimental part: as §1
Test [8] addresses T1, Full-length phosphorylated PDK1 (Homo sapiens, UniProt O15530).
T1 sequence (O15530 1-556): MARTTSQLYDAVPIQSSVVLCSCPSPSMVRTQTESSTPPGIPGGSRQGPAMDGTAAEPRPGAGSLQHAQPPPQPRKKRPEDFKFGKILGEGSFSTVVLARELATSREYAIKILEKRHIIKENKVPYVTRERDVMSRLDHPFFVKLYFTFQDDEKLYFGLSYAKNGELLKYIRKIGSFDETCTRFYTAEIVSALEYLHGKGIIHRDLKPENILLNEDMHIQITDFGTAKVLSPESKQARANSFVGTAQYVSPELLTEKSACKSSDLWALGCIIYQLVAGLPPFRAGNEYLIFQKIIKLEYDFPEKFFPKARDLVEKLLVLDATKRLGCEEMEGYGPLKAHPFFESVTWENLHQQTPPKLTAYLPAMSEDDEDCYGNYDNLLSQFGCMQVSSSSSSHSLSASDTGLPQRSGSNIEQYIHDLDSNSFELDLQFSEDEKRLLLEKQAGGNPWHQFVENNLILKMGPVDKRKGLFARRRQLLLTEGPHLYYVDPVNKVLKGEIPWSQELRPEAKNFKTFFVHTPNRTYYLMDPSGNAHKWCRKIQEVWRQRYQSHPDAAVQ
In words: Fluorescence polarization PIF-tide binding assay. The note with it: PDK1 saturating amounts of compound, FIG. 13C. In general terms: Polarisation of emitted light reports the rotation of a fluorescent probe.

Test [9] concerns hematologic tumor cell lines. In words: MTS cell proliferation assay, panel of hematologic cancer cell lines. Type of test: cell-based. To be noted: range against the various cell lines of Table 1; read-out: inhibition of cell proliferation EC50. As for the experimental part:
as §2

The test system of test [10] is KG1. In words: MTS cell proliferation assay, KG1. The class given is cell-based. The note with it: Homo sapiens, KG-1; KG1, 72 hr. As for the experimental part:
as §1

The subject of test [11] is U-2932. In words: MTS cell proliferation assay, U-2932. The class given is cell-based. The note with it: Homo sapiens, U2932; U-2932, 72 hr. As for the experimental part: as §2
Test [12] deals with MOLM-16. In words: MTS cell proliferation assay, MOLM-16. Type of test: cell-based. The note with it: Homo sapiens, MOLM16; MOLM-16, 72 hr. As for the experimental part:
as §1

Test [13] has as its system Molm-13. In words: MTS cell proliferation assay, Molm-13. The class given is cell-based. The note with it: Homo sapiens; Molm-13, 72 hr. As for the experimental part: as §2
The test system of test [14] is SU-DHL-4. In words: MTS cell proliferation assay, SU-DHL-4. The class given is cell-based. The note with it: Homo sapiens; SU-DHL-4, 72 hr. As for the experimental part: as §1
The test system of test [15] is Z-138. In words: MTS cell proliferation assay, Z-138. Type of test: cell-based. To be noted: Homo sapiens; Z-138, 72 hr. As for the experimental part: as §1
For test [16], the system named is MV4-11. In words: MTS cell proliferation assay, MV4-11. The class given is cell-based, human. The note with it: Homo sapiens; MV4-11, 72 hr; read-out: MTS proliferation assay. As for the experimental part: Cell proliferation was measured using the CellTiter 96 Aqueous Non-Radioactive Cell Proliferation Assay (Promega). […] MTS is bioreduced by cells into a formazan product that is soluble in tissue culture medium. The absorbance of the formazan product at 490 nm can be measured directly from assay plates without additional processing. The quantity of formazan product as measured by the amount of 490 nm absorbance is directly proportional to the number of living cells in culture. Cells were seeded into 96-well or 384-well clear plates in a volume of 200 μL (96-well) or 50 μL (384-well) at optimized densities ranging from 1,000 to 40,000 cells per well for 96-well plates or 1,200 to 25,000 cells per well for 384-well plates depending on cell-line. After 4-6 hr recovery, serially diluted compounds in DMSO were added to the cells using (0.1% v/v final DMSO concentration). Cells were then grown at 37° C. in a humidified incubator with 5% CO2 for 72 hr. A 20:1 [3-(4,5-dimethylthiazol-2-yl)-5-(3-carboxymethoxyphenyl)-2-(4-sulfophenyl)-2H-tetrazolium](MTS):phenazine methosulfate (PMS) solution in DPBS was made immediately before use, added to each well, and cells were incubated for 1.5 hr at 37° C. The absorbance at 490 nm was then measured using a platereader. Absorbance values were normalized as percent of control (cells incubated in the presence of 0.1% v/v DMSO). Sigmoidal dose-response curves were plotted using log(inhibitor) vs. response—Variable slope (four parameters) model with a top value constrained to 100% (GraphPad Prism version 6.00 for Windows, GraphPad Software, La Jolla California USA). […] To determine potential of compounds of the invention to affect viability of hematological cancers, cell lines representing various tumor types were selected and tested. […] In addition, two murine cell lines were tested: A20 […].

Test [17] relates to Jeko. In words: MTS cell proliferation assay, Jeko. The class given is cell-based. The note with it: Homo sapiens, 72 hr. As for the experimental part:
as §2

Test [18] has as its system SU-DHL-6. In words: MTS cell proliferation assay, SU-DHL-6. Type of test: cell-based. The note with it: Homo sapiens; SU-DHL-6, 72 hr. As for the experimental part:
as §1

As for `C[C@H](NC(=O)c1nc(C#N)cnc1NCc1ccc(-c2cnc3[nH]nc(N)c3c2)cc1)c1ccc(F)c(F)c1` [Compound 3, 3-[4-(3-Amino-1H-pyrazolo[3,4-b]pyridin-5-yl)-benzylamino]-6-cyano-pyrazine-2-carboxylic acid [1-(3,4-difluoro-phenyl)-ethyl]-amide], the EC50 in [1] was 278 nM; in test [2], 145 nM; in test [3], 201 nM; in test [4] it was 111 nM; in [5], 474 nM; in test [6], 853 nM. The EC50 is 403 nM in test [7]; 3 to 853 nM in [9]; 193 nM in test [10]; 115 nM in test [11]; 291 nM in [12]; 5 nM in [13]. Also, the EC50 in test [14] was 411 nM; in [15], 754 nM; in [16], 12 nM; in test [17], 249 nM; in test [18], 458 nM. For the same molecule, the “PIF-tide binding to PDK1 (fluorescence polarization, words)” value in test [8] is recorded as “significant inhibition of PIF-tide binding”.
